This note sets out measurements from ChEMBL document CHEMBL5608234, “Heat Shock Protein 90 Interactome-Mediated Proteolysis Targeting Chimera (HIM-PROTAC) Degrading Glutathione Peroxidase 4 to Trigger Ferroptosis” (J Med Chem, 2024).

The source made the active and inactive calls. The rule behind the calls is not given here.

The subject of experiment [1] is HT-1080. As to the kind of experiment: HIM-PROTAC activity at GPX4/HSP90/E3 ligase in CUL5-knockdown human HT-1080 cells assessed as GPX4 degradation at 0.3 to 1 uM incubated for 24 hrs by Western blotting analysis. It is filed as cell-based. The following applies: dose 0.3-1 µM. (In general: A western blot detects proteins with antibodies after separation by electrophoresis.)

The test system of experiment [2] is HT-1080. The experiment in a line: HIM-PROTAC activity at GPX4/HSP90/E3 ligase in CUL3-knockdown human HT-1080 cells assessed as GPX4 degradation at 0.3 to 1 uM incubated for 24 hrs by Western blotting analysis. The experiment is classed as cell-based. The following applies: dose 0.3-1 µM.

With `COc1c(C)cnc(Cn2cnc3c(NCCC4CCN(C(=O)Cn5cc(COc6ccc(N(C(=O)CCl)C(C(=O)NCCc7ccccc7)c7cccs7)cc6Cl)nn5)CC4)nc(N)nc32)c1C` (configuration not stated), the result in the experiment on HT-1080 [1] was inactive. For the same compound, the result with HT-1080 [2] was Active.
